Measured values taken from US5935945A, “Methods of treating or preventing cardiac arrhythmia” (Merck & Co., Inc., priority 1997, dated 1999).

What was measured:
[1] = target: T1, IKr (rapidly activating delayed rectifier K^+ current) (Cavia porcellus, UniProt O08703); assay: Voltage-clamp measurement of IKr in guinea pig ventricular myocytes; format: cell-based; settings: read-out: % Block (Guinea Pig Ventricle) IKr
T1 construct: Guinea pig ventricular myocytes were isolated; from tissue; host or cells: isolated guinea pig ventricular myocytes
T1 sequence (O08703 1-1294): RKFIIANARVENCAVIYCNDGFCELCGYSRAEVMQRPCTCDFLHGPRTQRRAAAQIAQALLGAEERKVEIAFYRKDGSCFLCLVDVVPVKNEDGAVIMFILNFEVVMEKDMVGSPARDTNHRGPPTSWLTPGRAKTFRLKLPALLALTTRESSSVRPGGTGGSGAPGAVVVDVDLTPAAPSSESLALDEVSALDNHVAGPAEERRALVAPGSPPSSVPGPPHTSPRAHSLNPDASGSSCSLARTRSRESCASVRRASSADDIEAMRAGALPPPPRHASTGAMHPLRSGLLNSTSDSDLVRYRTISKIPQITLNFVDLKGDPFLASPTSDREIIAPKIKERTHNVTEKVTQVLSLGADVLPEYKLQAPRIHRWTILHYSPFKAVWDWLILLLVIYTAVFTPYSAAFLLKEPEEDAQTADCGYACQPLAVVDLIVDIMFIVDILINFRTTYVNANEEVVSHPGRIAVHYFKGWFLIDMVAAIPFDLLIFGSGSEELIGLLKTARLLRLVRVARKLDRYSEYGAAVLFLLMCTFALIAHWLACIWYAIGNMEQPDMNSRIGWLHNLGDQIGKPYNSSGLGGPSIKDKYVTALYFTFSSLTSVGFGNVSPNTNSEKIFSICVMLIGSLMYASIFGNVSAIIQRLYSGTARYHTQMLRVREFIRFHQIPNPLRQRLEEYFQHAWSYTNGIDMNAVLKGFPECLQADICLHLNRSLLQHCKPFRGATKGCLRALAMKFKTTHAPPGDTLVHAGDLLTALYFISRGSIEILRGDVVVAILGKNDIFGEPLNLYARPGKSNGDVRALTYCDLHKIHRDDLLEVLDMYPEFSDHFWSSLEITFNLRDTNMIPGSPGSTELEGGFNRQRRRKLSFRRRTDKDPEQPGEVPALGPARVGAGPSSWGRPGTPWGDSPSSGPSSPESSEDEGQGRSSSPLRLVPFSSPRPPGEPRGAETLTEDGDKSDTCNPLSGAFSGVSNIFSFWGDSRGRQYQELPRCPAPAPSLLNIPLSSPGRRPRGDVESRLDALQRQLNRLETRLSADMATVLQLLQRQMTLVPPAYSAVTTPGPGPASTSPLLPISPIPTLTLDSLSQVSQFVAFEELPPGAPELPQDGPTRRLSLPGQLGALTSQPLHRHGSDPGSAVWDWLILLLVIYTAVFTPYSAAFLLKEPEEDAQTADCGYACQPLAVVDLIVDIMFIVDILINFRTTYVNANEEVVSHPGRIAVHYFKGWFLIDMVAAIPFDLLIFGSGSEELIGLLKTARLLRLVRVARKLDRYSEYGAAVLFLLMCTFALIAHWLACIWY
Protocol: (§1) Guinea pig ventricular myocytes were isolated using a modification of the procedure described by Mitra et al., Am. J. Physiol. 249:H1056-60 (1985). Excised hearts were perfused through the aorta (retrograde fashion) at a rate of 10 ml/min with oxygenated, warmed (37° C.) solutions described below. The heart was initially perfused for 7 minutes with a Tyrode's solution containing, (in mM): 132 NaCl, 4 KCl, 1.2 MgCl2, 10 HEPES, 5 glucose, pH=7.2. The heart was then perfused with the same nominally Ca^2+ -free solution containing 150 units/ml Type II collagenase (Worthington) and 0.5 units/ml Type XIV protease (Sigma) for 8 minutes. This perfusate was followed by a Tyrode's solution containing 0.2 mM CaCl2 (without enzymes) for 5 minutes. The digested ventricles were cut into small pieces and gently shaken until cells were visibly dispersed. The cells were stored at room temperature until use, within 8 hours after isolation.
(§2) The suction microelectrode technique described by Giles, W. R. and Shibata, E. F., "Voltage clamp of bull-frog cardiac pacemaker cells: a quantitative analysis of potassium currents", J. Physiol. 368:265-292 (1985) was used to voltage clamp the cells. Microelectrodes were made by using a two stage puller from square bore (1.0 mm o.d.) borosilicate capillary tubing. Pipettes were filled with 0.5 M K gluconate, 25 mM KCl and 5 mM K2 ATP. The electrodes had resistances of 3 to 7 M.OMEGA. when filled with this solution. After establishing whole-cell recording mode, negative pressure was maintained on the pipette using a 1 ml gas-tight syringe attached via air tight tubing to the suction port of the microelectrode holder. This minimized dialysis of the cell with the pipette solution.
(§3) To record K^+ currents, the cells were bathed in a Ca^2+ -free Tyrode's solution containing […]. […] To record Ca^2+ currents, the cells were bathed in Tyrode's solution containing 1.8 mM Ca^2+ without nisoldipine. The cell chamber was superfused with solutions at a rate of 1-2 ml/minute, while maintaining the temperature at 35±1° C. A List EPC-7 clamp amplifier was used to voltage clamp the isolated cells. […] (Sanguinetti M. C. and Jurkiewicz, N. K., "Two components of cardiac delayed rectifier K^+ current: Differential sensitivity to block by Class III antiarrhythmic agents", J. Gen Physiol 1990; 96:194-214.) Data was analyzed as % block from control membrane currents.
(§4) Nisoldipine was prepared as a 4 mM stock solution in polyethylene glycol 200. […] At the final concentrations used neither polyethylene glycol 200 nor dimethyl sulfoxide had any effect on any of the measured membrane currents.
(§5) Selectivity for block of cardiac K^+ channels, IK1, IKr, and IKs was determined as previously described in guinea pig ventricular myocytes (U.S. Pat. No. 5,428,031).

[2] = tested on: IK1 (inward rectifier K^+ current); assay: Voltage-clamp measurement of IK1 in guinea pig ventricular myocytes; format: cell-based
Protocol: as §1, §2, §3, §4, §5

Row | SMILES | inhibition at 10 µM ([1]; @ 10 μM) [%] | % Block (Guinea Pig Ventricle) IK1 ([2]; @ 10 μM) [%] | inhibition at 3 µM [1] [%] | % Block (Guinea Pig Ventricle) IK1 ([2]; @ 3 μM) [%]
1 | COc1ccc(-n2nc(Sc3ccc(Cl)cc3)c(C)c(C#N)c2=O)cc1 [Compound A, 6-(4-Chlorophenylthio)-2-(4-methoxyphenyl)-5-methyl-3-oxo-2,3-dihydropyridazine-4-carbonitrile] | 29 | 6 |  | 
2 | COc1ccc(-n2nc(Sc3ccc(C)cc3)c(C)c(C#N)c2=O)cc1 [Compound B] |  |  | 4.2 | 4.4
3 | Cc1cc(C)c(CP(=O)(c2ccccc2)c2ccccc2)c(-c2ccc(F)c(C)c2)c1 [Compound C, 2-(Diphenylphosphinylmethyl)-4'-fluoro-3,5,3'-trimethyl-biphenyl] |  |  | 11.1 | 15.1
